Results taken from patent US9067974B2, “Polymyxin derivatives and uses thereof” (priority 2006, dated 2015).

Legend:
K. pneumoniae ATCC13883 = assay: Well diffusion growth inhibition on LB agar plates (direct antibacterial activity); format: cell-based, Klebsiella pneumoniae
Procedure: (§1) From an overnight-grown culture of IH3080 on LB agar, a suspension of approx. 10^8 cells/ml was prepared in 0.9% NaCl. Aliquots of this suspension were then pipetted on the agar plates and the plates were gently shaken to spread the suspension evenly on the entire surface of the plate. Thereafter, the unabsorbed part of the suspension was removed by using a Pasteur pipette. After the surface had dried, small wells (diameter, 2 mm) were drilled on the plates (five wells per plate) by using a sterile sharp-edged narrow metal tube, single-use pipette tip, and vacuum suction. Samples (4 μl and 10 μl) of the peptide solution in 0.9% NaCl (at concentrations of 1 μg/ml and 0.1 μg/ml) were then pipetted to the wells and the sample fluids were allowed to absorb. Controls included 0.9% NaCl solution without the compound to be tested. The plates were then incubated for 18 h at 37° C. whereafter the diameters of growth inhibition zones around each well were measured; the diameter of the well itself was not reduced. Finally, the diameters were converted to surface areas of growth inhibition (in square mm).
(§2) The susceptibility of eleven Gram-negative bacterial strains (nine different species) to NAB734 and polymyxin B was compared by using the susceptibility determination method described in Example 2. The strains included those belonging to the species of Serratia marcescens and Proteus mirabilis, both species generally known to be resistant to polymyxin. Furthermore, the susceptibility determination was also performed by using the Gram-positive bacterium, Staphylococcus aureus, also generally known to be polymyxin-resistant. Ten of the strains originated from ATCC (American Type Culture Collection, Manassas, Va., U.S.A.), and one from CCUG (Culture Collection of University of Gothenburg, Sweden). The source of E. coli IH3080 has been described in Example 2. Polymyxin B sulfate was from Sigma-Aldrich (St. Louis, Mo., USA).

E. coli ATCC25922 = assay: as above; format: cell-based, Escherichia coli
Procedure: as §1, with “Samples (4 μl and 10 μl) of the peptide solution in 0.9% NaCl (at concentrations of 1 μg/ml and 0.1 μg/ml) were then pipetted to the wells and the sample fluids were allowed to absorb.” left out
as §2

K. oxytoca ATCC13182 = assay: as above; format: cell-based, Klebsiella oxytoca
Procedure: as §1, §2

P. mirabilis ATCC29906 = assay: as above; format: cell-based, Proteus mirabilis
Procedure: as §1, §2

S. marcescens ATCC8100 = assay: as above; format: cell-based, Serratia marcescens
Procedure: as §1, §2

E. coli IH3080 (K1:O18) = assay: as above; format: cell-based, Escherichia coli
Procedure: Peptides synthesized in Example 1, all carrying at least two (2) but not more than three (3) positive charges, were studied for their ability to inhibit the growth of E. coli. This was tested employing LB agar (LB Agar Lennox, Difco, BD, Sparks, Md., U.S.A) plates. The indicator organism E. coli IH3080 (K1:O18) was an encapsulated strain originally isolated from a neonate suffering from meningitis (Vaara et al. 1984) and obtained from National Public Health Institute, Helsinki, Finland.
as §1, with “Samples (4 μl and 10 μl) of the peptide solution in 0.9% NaCl (at concentrations of 1 μg/ml and 0.1 μg/ml) were then pipetted to the wells and the sample fluids were allowed to absorb.” left out

C. freundii ATCC8090 = assay: as above; format: cell-based, Citrobacter freundii
Procedure: as §1, §2

[1] = test system: Acinetobacter baumannii ATCC 19606; assay: as above; format: cell-based; settings: A. baumannii ATCC 19606
Procedure: as §1
(§3) Direct antibacterial activity of twelve NAB compounds against Acinetobacter baumannii ATCC 19606 and Pseudomonas aeruginosa ATCC 27853 was tested by using the susceptibility determination method described in Example 2. Five compounds (NAB7062, NAB734, NAB737, NAB739, and NAB740) had notable activity against A. baumannii. […] The antibacterial activity of NAB739 and NAB740 were as strong as or even stronger than that of polymyxin B.

[2] = test system: Pseudomonas aeruginosa ATCC 27853; assay: as above; format: cell-based; settings: Ps. aeruginosa ATCC 27853
Procedure: as §1, §3

E. cloacae ATCC23355 = assay: as above; format: cell-based, Enterobacter cloacae
Procedure: as §1, §2

K. pneumoniae CCUG45421 = assay: as above; format: cell-based, Klebsiella pneumoniae
Procedure: as §1, with “Samples (4 μl and 10 μl) of the peptide solution in 0.9% NaCl (at concentrations of 1 μg/ml and 0.1 μg/ml) were then pipetted to the wells and the sample fluids were allowed to absorb.” left out
as §2

S. aureus ATCC 25923 = assay: as above; format: cell-based, Staphylococcus aureus
Procedure: as §1, with “Samples (4 μl and 10 μl) of the peptide solution in 0.9% NaCl (at concentrations of 1 μg/ml and 0.1 μg/ml) were then pipetted to the wells and the sample fluids were allowed to absorb.” left out
as §2

[3] = test system: Ps. aeruginosa ATCC 27853; assay: Sensitization to rifampin: well diffusion growth inhibition on LB plates containing rifampin; format: cell-based, Pseudomonas aeruginosa; settings: 4 μg of compound
A. baumannii ATCC 19606 = assay: as above; format: cell-based, Acinetobacter baumannii; settings: 4 μg of compound
E. coli IH3080 = assay: as above; format: cell-based, Escherichia coli; settings: 4 μg of compound
Procedure: as §1, with “Samples (4 μl and 10 μl) of the peptide solution in 0.9% NaCl (at concentrations of 1 μg/ml and 0.1 μg/ml) were then pipetted to the wells and the sample fluids were allowed to absorb.” left out

| Substance | Antibacterial activity (growth inhibition area around a well) (E. coli IH3080 (K1:O18); 4 μg of compound per well) [square millimeters] | Antibacterial activity (growth inhibition area around a well) (E. coli IH3080 (K1:O18); 10 μg of compound per well) [square millimeters] | Antibacterial activity (growth inhibition area around a well) ([1]; 4 μg per well) [square millimeters] | Antibacterial activity (growth inhibition area around a well) ([1]; 10 μg per well) [square millimeters] | Antibacterial activity (growth inhibition area around a well) ([2]; 4 μg per well) [square millimeters] | Antibacterial activity (growth inhibition area around a well) ([2]; 10 μg per well) [square millimeters] | Antibacterial activity in the presence of rifampin (growth inhibition area around a well) ([3]; rifampin 0 μg/ml) [square millimeters] | Antibacterial activity in the presence of rifampin (growth inhibition area around a well) ([3]; rifampin 0.1 μg/ml) [square millimeters] | Antibacterial activity in the presence of rifampin (growth inhibition area around a well) ([3]; rifampin 0.3 μg/ml) [square millimeters] | Antibacterial activity in the presence of rifampin (growth inhibition area around a well) (A. baumannii ATCC 19606; rifampin 0 μg/ml) [square millimeters] | Antibacterial activity in the presence of rifampin (growth inhibition area around a well) (A. baumannii ATCC 19606; rifampin 0.1 μg/ml) [square millimeters] | Antibacterial activity in the presence of rifampin (growth inhibition area around a well) (A. baumannii ATCC 19606; rifampin 0.3 μg/ml) [square millimeters] | Antibacterial activity in the presence of rifampin (growth inhibition area around a well) (E. coli IH3080; rifampin 0 μg/ml) [square millimeters] | Antibacterial activity in the presence of rifampin (growth inhibition area around a well) (E. coli IH3080; rifampin 0.1 μg/ml) [square millimeters] | Antibacterial activity in the presence of rifampin (growth inhibition area around a well) (E. coli IH3080; rifampin 1.0 μg/ml) [square millimeters] | further results |
| --- | --- | --- | --- | --- | --- | --- | --- | --- | --- | --- | --- | --- | --- | --- | --- | --- |
| Polymyxin B sulfate [reference compound] | 95 | 133 | 113 | 154 | 95 | 133 | – | – | – | – | – | – | – | – | – | Antibacterial activity (growth inhibition area around a well) (K. pneumoniae ATCC13883; 4 μg per well): 79 square millimeters; Antibacterial activity (growth inhibition area around a well) (K. pneumoniae ATCC13883; 10 μg per well): 113 square millimeters; Antibacterial activity (growth inhibition area around a well) (E. coli ATCC25922; 4 μg per well): 95 square millimeters; Antibacterial activity (growth inhibition area around a well) (E. coli ATCC25922; 10 μg per well): 133 square millimeters; Antibacterial activity (growth inhibition area around a well) (K. oxytoca ATCC13182; 4 μg per well): 79 square millimeters; Antibacterial activity (growth inhibition area around a well) (K. oxytoca ATCC13182; 10 μg per well): 104 square millimeters; Antibacterial activity (growth inhibition area around a well) (P. mirabilis ATCC29906; 4 μg per well): 0 square millimeters; Antibacterial activity (growth inhibition area around a well) (P. mirabilis ATCC29906; 10 μg per well): 0 square millimeters; Antibacterial activity (growth inhibition area around a well) (S. marcescens ATCC8100; 4 μg per well): 0 square millimeters; Antibacterial activity (growth inhibition area around a well) (S. marcescens ATCC8100; 10 μg per well): 0 square millimeters; Antibacterial activity (growth inhibition area around a well) (C. freundii ATCC8090; 4 μg per well): 95 square millimeters; Antibacterial activity (growth inhibition area around a well) (C. freundii ATCC8090; 10 μg per well): 154 square millimeters; Antibacterial activity (growth inhibition area around a well) (E. cloacae ATCC23355; 4 μg per well): 95 square millimeters; Antibacterial activity (growth inhibition area around a well) (E. cloacae ATCC23355; 10 μg per well): 143 square millimeters; Antibacterial activity (growth inhibition area around a well) (K. pneumoniae CCUG45421; 4 μg per well): 95 square millimeters; Antibacterial activity (growth inhibition area around a well) (K. pneumoniae CCUG45421; 10 μg per well): 133 square millimeters; Antibacterial activity (growth inhibition area around a well) (S. aureus ATCC 25923; 4 μg per well): 0 square millimeters; Antibacterial activity (growth inhibition area around a well) (S. aureus ATCC 25923; 10 μg per well): 0 square millimeters |
| DA-Thr-Abu-cy[Dab-Dab-DPhe-Leu-Dab-Dab-Thr-] [NAB 7062] | 50 | 99 | 13 | 38 | 0 | 0 | 0 | 0 | 7 | 13 | 50 | 95 | 50 | 104 | 104 | – |
| OA-Thr-Dab-cy[Dab-Dab-DPhe-Leu-Abu-Dab-Thr-] [NAB 716] | 13 | 64 | 0 | 0 | 0 | 0 | 0 | 0 | 0 | 0 | 0 | 64 | 13 | 133 | 165 | – |
| DA-cy[Dab-Dab-DPhe-Leu-Dab-Dab-Thr-] [NAB 736] | 0 | 0 | 0 | 0 | 38 | 79 | 38 | 38 | 38 | 0 | 95 | 154 | 0 | 113 | 133 | – |
| OA-Thr-DSer-cy[Dab-Dab-DPhe-Leu-Dab-Dab-Thr-] [NAB 739] | 133 | 177 | 113 | 177 | 38 | 79 | 38 | 64 | 64 | 113 | 177 | 314 | 133 | 177 | 201 | – |
